Measurements published in the supplement of paper PMC10307832.

What was measured:
Experiment in all cases: relative viability (nuclei count vs DMSO), 5 days (fraction); higher = more cells survive
[1] = compound: Nc1ccccc1NC(=O)c1ccc(CNC(=O)OCc2cccnc2)cc1 [Entinostat] + CS(=O)(=O)N1CCN(Cc2cc3nc(-c4cccc5[nH]ncc45)nc(N4CCOCC4)c3s2)CC1 [Pictilisib] (partner 1 µM)
How it was run: (§1)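 For relative viability, nuclei counts in treated wells were divided by those in vehicle wells. Lung cancer cell lines had been pin-tool dosed in 1536-well plates the day after seeding and cultured for 5 days, then fixed and stained in one step (final 0.05% Triton X-100, 1% formaldehyde, 1 ug/ml Hoechst) and imaged at 4×. Doses were one drug alone or a fixed anchor-drug dose plus five library-drug doses (not always all listed) in √10 steps, and values are duplicate-plate medians.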

[2] = compound: C1COCCN1C2=NC(=NC3=C2OC4=C3C=CC=N4)C5=CC(=CC=C5)NC(=O)C6=CN=C(C=C6)N + CS(=O)(=O)CCNCc1ccc(-c2ccc3ncnc(Nc4ccc(OCc5cccc(F)c5)c(Cl)c4)c3c2)o1 [Lapatinib] (partner 2 µM)
How it was run: as §1

[3] = compound: C1COCCN1C2=NC(=NC3=C2OC4=C3C=CC=N4)C5=CC(=CC=C5)NC(=O)C6=CN=C(C=C6)N + CCNC(=O)c1noc(-c2cc(C(C)C)c(O)cc2O)c1-c1ccc(CN2CCOCC2)cc1 [Luminespib] (partner 0.01 µM)
How it was run: as §1

[4] = compound: C1COCCN1C2=NC(=NC3=C2OC4=C3C=CC=N4)C5=CC(=CC=C5)NC(=O)C6=CN=C(C=C6)N + NC(=O)Nc1cc(-c2cccc(F)c2)sc1C(=O)N[C@H]1CCCNC1 [AZD7762] (partner 0.2 µM)
How it was run: as §1

Cell Line | relative viability ([1]; first compound 0.02 µM) | relative viability ([1]; first compound 0.06325 µM) | relative viability ([1]; first compound 0.2 µM) | relative viability ([1]; first compound 0.6325 µM) | relative viability ([1]; first compound 2 µM) | relative viability ([2]; first compound 0.02 µM) | relative viability ([2]; first compound 0.06325 µM) | relative viability ([2]; first compound 0.2 µM) | relative viability ([2]; first compound 0.6325 µM) | relative viability ([2]; first compound 2 µM) | relative viability ([3]; first compound 0.02 µM) | relative viability ([3]; first compound 0.06325 µM) | relative viability ([3]; first compound 0.2 µM) | relative viability ([3]; first compound 0.6325 µM) | relative viability ([3]; first compound 2 µM) | relative viability ([4]; first compound 0.02 µM) | relative viability ([4]; first compound 0.06325 µM) | relative viability ([4]; first compound 0.2 µM) | relative viability ([4]; first compound 0.6325 µM) | relative viability ([4]; first compound 2 µM)
A-427 | 0.67 | 0.837 | 0.65 | 0.757 | 0.589 | 1.06 | 1.04 | 0.91 | 1.1 | 0.677 | 0.812 | 0.951 | 0.982 | 0.872 | 0.544 | 0.788 | 0.746 | 0.673 | 0.655 | 0.689
NCI-H838 | 0.439 | 0.613 | 0.72 | 0.461 | 0.237 | 0.725 | 1.06 | 0.895 | 0.705 | 0.53 | 0.338 | 0.279 | 0.264 | 0.303 | 0.227 | 0.95 | 0.967 | 0.999 | 0.827 | 0.755
LOU-NH91 | 0.522 | 0.529 | 0.549 | 0.452 | 0.394 | 0.764 | 0.826 | 0.725 | 0.769 | 0.715 | 0.309 | 0.389 | 0.346 | 0.315 | 0.306 | 0.733 | 0.793 | 0.734 | 0.748 | 0.59
BEN | 0.594 | 0.673 | 0.453 | 0.282 | 0.188 | 0.765 | 0.702 | 0.744 | 0.673 | 0.588 | 0.479 | 0.312 | 0.313 | 0.328 | 0.42 | 0.726 | 0.636 | 0.66 | 0.621 | 0.657
NCI-H2085 | 0.477 | 0.388 | 0.378 | 0.382 | 0.403 | 0.77 | 0.771 | 0.744 | 0.726 | 0.65 | 0.386 | 0.46 | 0.402 | 0.372 | 0.327 | 0.934 | 0.969 | 0.874 | 0.646 | 0.598
ABC-1 | 0.668 | 1.07 | 0.7 | 0.452 | 0.279 | 1.38 | 1.14 | 1.07 | 1.21 | 0.871 | 0.383 | 1.28 | 0.473 | 0.739 | 0.475 | 0.793 | 0.638 | 0.608 | 1.03 | 0.684
NCI-H650 | 0.934 | 0.914 | 0.75 | 0.579 | 0.269 | 0.913 | 0.915 | 0.891 | 1.02 | 0.517 | 0.873 | 0.756 | 0.788 | 0.783 | 0.698 | 1.08 | 1 | 0.993 | 0.809 | 0.852
NCI-H1792 | 0.245 | 0.239 | 0.164 | 0.0977 | 0.0839 | 0.882 | 0.904 | 0.874 | 0.925 | 0.376 | 0.286 | 0.487 | 0.405 | 0.286 | 0.331 | 0.593 | 0.707 | 0.509 | 0.544 | 0.386
